Results from patent publication US8614205B2, “Glutamate receptor modulators and therapeutic agents” (priority 2009, dated 2013).
“And” between values parts separate entries of the source, which are not always exact repeats. Equal values may be shown once. Read-outs that look alike come from different tables or passages of the source.

How the values were obtained:
[1] = molecular target: T1, mGluR5 (Homo sapiens, UniProt P41594); assay: aequorin calcium assay, negative allosteric modulation of mGluR5; format: cell-based
T1 construct: expression induced with doxycycline
Description: (§1) The ability of test compound to ameliorate the efflux of calcium cations (Ca^++) in the presence of agonist (glutamate or quisqualate) is measured by detection of light emitted by the luminescent protein aequorin triggered by binding of Ca^++. Aequorin is a photoprotein isolated from luminescent jellyfish (like various Aequorea species e.g. Aequorea victoria). Aequorin is composed of two distinct units, the apoprotein apoaequorin, with an approximate molecular weight of 22 kDa, and the prosthetic group, coelenterazine, responsible for emission of light. In the presence of molecular oxygen the two components of aequorin assemble spontaneously, forming the functional protein. Four EF-hand type regions have been identified in the structure of Aequorin and at least 3 of them function as binding sites for Ca+2 ions: Ca+2 binding to these EF hands triggers a conformational change of the protein, that leads it to oxidize its prosthetic group, coelenterazine, into excited coelenteramide and CO2. As the excited coelenteramide relaxes to the ground state, blue light (wavelength=469 nm) is emitted and can be measured by a luminometer. Negative allosteric modulator activity of test compound is expressed as a percentage of the stimulation of reference agonist (glutamate) activity at its EC80 concentration. Assay of Compounds was performed at Euroscreen SA, Gosselies, Belgium.
(§2) Cells stably transfected with mGlu1 or mGlu5 were grown 18 hours prior to the test in culture medium containing 600 ng/ml doxycycline, then were detached by gentle flushing with PBS-EDTA, recovered by centrifugation and resuspended in “assay buffer” (HBSS, 2.1 mM CaCl2, 3 μg/ml GPT (Glutamate-Pyruvate transaminase), 4 mM MEM Sodium Pyruvate, 0.1% BSA, protease free). Cells were incubated at room temperature for at least 4 h with coelenterazine-h. Dose response curves were performed using mGluR1 cells with the orthosteric agonist glutamate and negative allosteric modulator JNJ16259685. Dose response curves were performed using mGluR5 cells with the orthosteric agonist glutamate and negative allosteric modulator MPEP. For agonist testing, 30 μl of cell suspension were mixed with 30 μl of test compound or reference agonist in a 384-well plate. The resulting emission of light was recorded using the Hamamatsu Functional Drug Screening System 6000 (FDSS 6000). For negative allosteric modulator testing, 60 μl of the resulting cell suspension containing the test compound was mixed with 30 μl of the reference agonist at EC80 following an incubation of 3 min after the first injection. The resulting emission of light was recorded using FDSS 6000. […] Plates also contained the reference agonist at a concentration equivalent to the EC80 obtained during the test validation. Negative allosteric modulator activity of test compound was expressed as a percentage of the stimulation of reference agonist activity at its EC80 concentration.

[2] = molecular target: T2, mGluR1 (Homo sapiens, UniProt Q13255); assay: aequorin calcium assay, negative allosteric modulation of mGluR1; format: cell-based; settings: thiazole derivatives of benzamide, in vitro activity; read-out: binding at mGluR1
T2 construct: expression induced with doxycycline

[3] = molecular target: T2, mGluR1; assay: as above; format: cell-based; settings: aequorin assay, agonist at EC80; 10000 = no activity observed at 10,000 nM
Description: as §1, §2

[4] = tested on: hyperalgesia in partial sciatic nerve ligation rat; assay: partial sciatic nerve ligation (PSN) model of neuropathic pain, paw withdrawal method; format: in vivo; set-up: AUC (0-5): unit not given beside the values; settings: for % MPE (0-100) 1 hr / Paw withdrawal thresholds (g; raw data) 1 hr / Raw MPE (%) 1 hr / % MPE (0-100) 3 hrs / Paw withdrawal thresholds (g; raw data) 3 hrs / Raw MPE (%) 3 hrs / % MPE (0-100) 5 hrs / Paw withdrawal thresholds (g; raw data) 5 hrs / Raw MPE (%) 5 hrs / % MPE (0-100) 24 hrs / Paw withdrawal thresholds (g; raw data) 24 hrs / Raw MPE (%) 24 hrs / AUC (0-5): PSN Sx rat
Description: Briefly, under gas anesthesia, the skin and muscles of the thigh were reflected to expose the sciatic nerve. About one-third to one-half of the cross-sectional area of the nerve was tightly ligated using a 7-0 nylon suture. The incision was closed in layers (suture for muscle, surgical adhesive for skin). […] Treated rats were assayed at 1, 3, 5, and 24 hr using the paw withdrawal method (L. Randall and J. Selitto, 1957, Arch. Int. Pharmacodynam., 111:409-19). […] The Partial sciatic nerve ligation assay was performed at Eurofins/Product Safety Laboratories (Dayton, N.J.).
Animals were housed in cages which conform to the size recommendations in the most recent NIH Guide for the Care and Use of Laboratory Animals. […] The animals were fed Purina Rodent Chow #5012. The animals were acclimated to the facility for 7 days prior to the study. A pre-operative baseline paw withdrawal measure was collected for all rats. […] After recovery, a pre-dosing baseline paw withdrawal threshold was collected for all rats. […] Rats were lightly anesthetized and treated with test article or vehicle. Paw withdrawal thresholds were determined at one, three, five, and 24 hours post dosing. […] Briefly, under gas anesthesia, the skin and muscles of the thigh were reflected to expose the sciatic nerve. About one third to one half of the cross-sectional area of the nerve was tightly ligated using a 7-0 nylon suture. The incision was closed in layers (suture for muscle, surgical adhesive for skin). Test article or vehicle was administered by transcutaneous injection (C. Mestre et al., 1994, J. Pharm. Tox. Meth., 32:197-200). Briefly, the rat was lightly anesthetized and placed to flex the lower lumbar vertebrae. After palpating the vertebral processes, a 26 gauge needle was inserted through a vertebral interspace. The presence of a tail flick was considered validation of the needle placement; the solution was then injected. Paw withdrawal thresholds were assessed using a paw pressure device (L. O. Randall & J. J. Selitto, 1957, Arch. Int. Pharmacodyn., 111:409-19). The behavioral endpoint was defined as paw withdrawal. Data was analyzed by two-way analysis of variance (repeated measures) with Bonferroni tests at individual time points. Paw withdrawal threshold raw values were used for the analysis, and each route of administration was analyzed separately. Vehicle-treated groups were used as the statistical comparison groups.

[5] = thiazole derivatives of benzamide, in vitro activity, read-out: binding at mGluR5
[6] = 10 μg intrathecal, group Average (N 6)
[7] = 10 μg intrathecal, individual rat, listed as SND 121
[8] = 49 μg intrathecal, group Average (N 6)
[9] = 49 μg intrathecal, individual rat, listed as SND 121

T2 sequence (Q13255 19-1194): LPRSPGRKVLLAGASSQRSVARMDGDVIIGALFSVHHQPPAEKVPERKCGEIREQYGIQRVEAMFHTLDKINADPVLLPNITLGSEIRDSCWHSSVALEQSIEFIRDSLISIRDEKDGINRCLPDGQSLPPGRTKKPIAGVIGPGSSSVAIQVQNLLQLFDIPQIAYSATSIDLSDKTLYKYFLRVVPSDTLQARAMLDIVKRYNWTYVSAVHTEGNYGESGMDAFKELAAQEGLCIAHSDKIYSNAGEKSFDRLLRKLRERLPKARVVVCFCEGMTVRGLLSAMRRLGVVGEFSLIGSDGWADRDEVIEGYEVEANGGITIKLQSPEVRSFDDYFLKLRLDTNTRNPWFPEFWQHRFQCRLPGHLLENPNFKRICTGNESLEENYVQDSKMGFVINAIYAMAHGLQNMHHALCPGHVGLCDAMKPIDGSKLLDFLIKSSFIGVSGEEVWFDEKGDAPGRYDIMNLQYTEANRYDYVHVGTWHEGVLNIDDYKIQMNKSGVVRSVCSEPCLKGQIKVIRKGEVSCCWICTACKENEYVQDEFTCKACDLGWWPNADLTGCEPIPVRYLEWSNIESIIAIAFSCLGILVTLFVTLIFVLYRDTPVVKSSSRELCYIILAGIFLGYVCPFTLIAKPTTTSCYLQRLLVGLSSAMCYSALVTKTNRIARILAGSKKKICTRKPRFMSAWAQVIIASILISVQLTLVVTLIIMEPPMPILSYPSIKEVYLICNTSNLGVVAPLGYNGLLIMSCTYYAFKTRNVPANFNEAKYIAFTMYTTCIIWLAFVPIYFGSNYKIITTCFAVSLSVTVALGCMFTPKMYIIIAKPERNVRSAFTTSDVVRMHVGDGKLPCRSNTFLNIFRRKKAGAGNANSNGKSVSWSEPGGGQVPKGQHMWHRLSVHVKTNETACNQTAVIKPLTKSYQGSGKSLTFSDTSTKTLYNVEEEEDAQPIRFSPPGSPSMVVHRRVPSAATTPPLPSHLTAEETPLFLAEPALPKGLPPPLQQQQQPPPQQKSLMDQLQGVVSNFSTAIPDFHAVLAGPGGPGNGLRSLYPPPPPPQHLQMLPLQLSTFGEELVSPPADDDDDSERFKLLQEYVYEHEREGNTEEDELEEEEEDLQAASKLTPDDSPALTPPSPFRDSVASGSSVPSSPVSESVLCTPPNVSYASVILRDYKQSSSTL
T1 sequence (P41594 21-1212): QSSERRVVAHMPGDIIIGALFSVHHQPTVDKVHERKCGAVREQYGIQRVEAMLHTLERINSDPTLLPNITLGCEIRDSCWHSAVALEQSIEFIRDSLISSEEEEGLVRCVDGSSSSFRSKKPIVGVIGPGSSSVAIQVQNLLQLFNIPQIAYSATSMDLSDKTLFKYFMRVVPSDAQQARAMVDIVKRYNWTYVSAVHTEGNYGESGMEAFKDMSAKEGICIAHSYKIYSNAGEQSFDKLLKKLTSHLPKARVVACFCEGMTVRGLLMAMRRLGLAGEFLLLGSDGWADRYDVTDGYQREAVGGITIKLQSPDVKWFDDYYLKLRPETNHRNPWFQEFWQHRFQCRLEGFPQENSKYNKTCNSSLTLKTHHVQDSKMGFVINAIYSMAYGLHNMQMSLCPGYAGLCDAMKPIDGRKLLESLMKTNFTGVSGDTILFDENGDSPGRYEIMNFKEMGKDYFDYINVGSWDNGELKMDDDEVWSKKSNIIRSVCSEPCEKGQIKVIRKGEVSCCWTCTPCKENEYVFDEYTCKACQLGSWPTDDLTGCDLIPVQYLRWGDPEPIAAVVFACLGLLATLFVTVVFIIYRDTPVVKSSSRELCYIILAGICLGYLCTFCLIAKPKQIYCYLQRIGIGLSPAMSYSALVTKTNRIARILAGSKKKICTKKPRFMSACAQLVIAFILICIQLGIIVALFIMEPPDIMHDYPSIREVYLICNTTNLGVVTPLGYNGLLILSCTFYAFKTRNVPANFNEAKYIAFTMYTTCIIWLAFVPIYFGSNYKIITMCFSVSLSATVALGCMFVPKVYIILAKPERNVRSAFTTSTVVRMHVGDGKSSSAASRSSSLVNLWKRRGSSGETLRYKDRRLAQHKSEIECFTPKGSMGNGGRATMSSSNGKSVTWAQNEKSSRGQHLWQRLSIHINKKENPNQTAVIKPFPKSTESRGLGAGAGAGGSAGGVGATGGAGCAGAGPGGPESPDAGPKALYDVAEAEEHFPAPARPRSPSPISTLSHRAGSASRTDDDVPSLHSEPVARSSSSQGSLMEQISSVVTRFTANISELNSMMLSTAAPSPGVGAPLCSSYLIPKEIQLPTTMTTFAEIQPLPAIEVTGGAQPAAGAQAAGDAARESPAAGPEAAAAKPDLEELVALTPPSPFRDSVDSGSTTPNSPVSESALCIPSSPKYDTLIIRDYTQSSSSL

O=C(Nc1nc([N+](=O)[O-])cs1)c1cc(Cl)ccc1O
EC50 [1, 5]: 1250 nM
EC50 [2]: 1760 nM

CC(=O)Oc1ccc(Cl)cc1C(=O)Nc1nc([N+](=O)[O-])cs1
EC50 [1, 5]: 2760 nM
EC50 [2]: 6320 nM

O=C(Nc1ccc([N+](=O)[O-])cc1Cl)c1cc(Cl)ccc1O [Compound 1, 5-Chloro-N-(2-chloro-4-nitrophenyl)-2-hydroxybenzamide]
EC50 [3]: 38 nM
% MPE (0-100) 1 hr [4, 6]: 29.7%
Paw withdrawal thresholds (g; raw data) 1 hr [4, 6]: 125.8 g
Raw MPE (%) 1 hr [4, 6]: 31.3%
% MPE (0-100) 1 hr [4, 7]: 0.0% (3×) and 6.7% and 100.0% and 71.5%
Paw withdrawal thresholds (g; raw data) 1 hr [4, 7]: 90 g (2×) and 60 g and 105 g and 250 g and 160 g
Raw MPE (%) 1 hr [4, 7]: −10.9% (2×) and 6.7% and 177.6% and 71.5%
% MPE (0-100) 3 hrs [4, 6]: 39.9%
Paw withdrawal thresholds (g; raw data) 3 hrs [4, 6]: 130.0 g
Raw MPE (%) 3 hrs [4, 6]: 41.8%
% MPE (0-100) 3 hrs [4, 7]: 41.8% and 27.5% and 0.0% (2×) and 100.0% and 70.3%
Paw withdrawal thresholds (g; raw data) 3 hrs [4, 7]: 130 g and 120 g and 100 g (2×) and 180 g and 150 g
Raw MPE (%) 3 hrs [4, 7]: 41.8% and 27.5% and −1.0% (2×) and 113.1% and 70.3%
% MPE (0-100) 5 hrs [4, 6]: 34.7%
Paw withdrawal thresholds (g; raw data) 5 hrs [4, 6]: 122.5 g
Raw MPE (%) 5 hrs [4, 6]: 33.6%
% MPE (0-100) 5 hrs [4, 7]: 30.3% (2×) and 0.0% and 43.6% and 100.0% and 3.8%
Paw withdrawal thresholds (g; raw data) 5 hrs [4, 7]: 120 g (2×) and 70 g and 130 g and 195 g and 100 g
Raw MPE (%) 5 hrs [4, 7]: 30.3% (2×) and −36.0% and 43.6% and 129.9% and 3.8%
% MPE (0-100) 24 hrs [4, 6]: 28.6%
Paw withdrawal thresholds (g; raw data) 24 hrs [4, 6]: 117.5 g
Raw MPE (%) 24 hrs [4, 6]: 33.9%
% MPE (0-100) 24 hrs [4, 7]: 44.5% and 16.2% and 2.0% and 9.1% and 100.0% and 0.0%
Paw withdrawal thresholds (g; raw data) 24 hrs [4, 7]: 125 g and 105 g and 95 g and 100 g and 195 g and 85 g
Raw MPE (%) 24 hrs [4, 7]: 44.5% and 16.2% and 2.0% and 9.1% and 143.7% and −12.1%
AUC (0-5) [4, 6]: 159.1
AUC (0-5) [4, 7]: 113.9 and 85.3 and 0.0 and 53.7 and 450.0 and 251.7
% MPE (0-100) 1 hr [4, 8]: 80.7%
Paw withdrawal thresholds (g; raw data) 1 hr [4, 8]: 199.2 g
Raw MPE (%) 1 hr [4, 8]: 117.7%
% MPE (0-100) 1 hr [4, 9]: 100.0% (4×) and 48.0% and 36.2%
Paw withdrawal thresholds (g; raw data) 1 hr [4, 9]: 250 g (2×) and 190 g and 140 g and 130 g and 235 g
Raw MPE (%) 1 hr [4, 9]: 177.6% (2×) and 106.9% and 48.0% and 36.2% and 159.9%
% MPE (0-100) 3 hrs [4, 8]: 54.2%
Paw withdrawal thresholds (g; raw data) 3 hrs [4, 8]: 163.3 g
Raw MPE (%) 3 hrs [4, 8]: 89.3%
% MPE (0-100) 3 hrs [4, 9]: 100.0% (2×) and 70.3% and 0.0% and 41.8% and 13.2%
Paw withdrawal thresholds (g; raw data) 3 hrs [4, 9]: 250 g (2×) and 150 g and 90 g and 130 g and 110 g
Raw MPE (%) 3 hrs [4, 9]: 212.9% (2×) and 70.3% and −15.3% and 41.8% and 13.2%
% MPE (0-100) 5 hrs [4, 8]: 31.8%
Paw withdrawal thresholds (g; raw data) 5 hrs [4, 8]: 119.2 g
Raw MPE (%) 5 hrs [4, 8]: 29.2%
% MPE (0-100) 5 hrs [4, 9]: 100.0% and 43.6% (2×) and 3.8% and 0.0% (2×)
Paw withdrawal thresholds (g; raw data) 5 hrs [4, 9]: 180 g and 130 g (2×) and 100 g and 80 g and 95 g
Raw MPE (%) 5 hrs [4, 9]: 110.0% and 43.6% (2×) and 3.8% and −22.7% and −2.8%
% MPE (0-100) 24 hrs [4, 8]: 1.5%
Paw withdrawal thresholds (g; raw data) 24 hrs [4, 8]: 84.2 g
Raw MPE (%) 24 hrs [4, 8]: −13.3%
% MPE (0-100) 24 hrs [4, 9]: 0.0% (5×) and 9.1%
Paw withdrawal thresholds (g; raw data) 24 hrs [4, 9]: 90 g (3×) and 55 g and 100 g and 80 g
Raw MPE (%) 24 hrs [4, 9]: −5.1% (3×) and −54.6% and 9.1% and −19.2%
AUC (0-5) [4, 8]: 261.3
AUC (0-5) [4, 9]: 450.0 and 334.2 and 153.8 and 155.5 and 80.8 and 393.6
effectiveness in model of hyperalgesia vs 100 μg gabapentin ([4]; 49 μg intrathecal, rat): considerably more effective
reversing hyperalgesia, compared to gabapentin ([4]; 10 or 49 μg intrathecal vs 100 μg gabapentin, rat): essentially as effective or more effective as gabapentin
EC50 ([1]; aequorin assay, agonist at EC80, 10000 = no activity observed at 10,000 nM, read-out: mGluR5 EC50): 62 nM
